The source of these data is article PMC9742833.

Counter-ions that a name gives are not always drawn.

The target in data set [1] is T1, CYP2A6 (Homo sapiens, UniProt P11509).
T1 sequence (P11509 1-494): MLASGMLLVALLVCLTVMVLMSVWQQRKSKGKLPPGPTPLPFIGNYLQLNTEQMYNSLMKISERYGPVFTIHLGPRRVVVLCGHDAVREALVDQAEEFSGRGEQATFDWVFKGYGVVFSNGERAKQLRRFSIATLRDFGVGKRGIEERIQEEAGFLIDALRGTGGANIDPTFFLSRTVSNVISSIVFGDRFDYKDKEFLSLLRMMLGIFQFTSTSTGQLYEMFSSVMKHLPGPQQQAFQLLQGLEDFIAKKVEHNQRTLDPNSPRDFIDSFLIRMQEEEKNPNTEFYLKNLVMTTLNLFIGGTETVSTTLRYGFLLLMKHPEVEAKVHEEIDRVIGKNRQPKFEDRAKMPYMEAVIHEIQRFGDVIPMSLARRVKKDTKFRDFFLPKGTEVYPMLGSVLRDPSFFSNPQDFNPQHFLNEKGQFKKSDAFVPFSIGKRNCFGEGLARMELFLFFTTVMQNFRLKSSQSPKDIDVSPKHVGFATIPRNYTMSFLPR
Description: Vivid CYP450 fluorescence assay, reversible inhibition.

A further data set concerns CYP2C9. The conditions noted are these: human CYP2C9, in vitro; cited from earlier work.
Data set [2] has as its target T2, CYP2C19 (Homo sapiens, UniProt P33261). Description: Vivid CYP450 fluorescence assay, reversible inhibition.
Data set [3] has as its system CYP2C8. The description is as above. The following applies: CYP2C8, substrate DBOMF, cathinone 0 to 1000 µM.
Another data set deals with CYP2D6. The conditions noted are these: human CYP2D6, in vitro; cited from earlier work.
For data set [4], the target named is T3, CYP1A2 (Homo sapiens, UniProt P05177).
T3 sequence (P05177 2-516 limits assumed): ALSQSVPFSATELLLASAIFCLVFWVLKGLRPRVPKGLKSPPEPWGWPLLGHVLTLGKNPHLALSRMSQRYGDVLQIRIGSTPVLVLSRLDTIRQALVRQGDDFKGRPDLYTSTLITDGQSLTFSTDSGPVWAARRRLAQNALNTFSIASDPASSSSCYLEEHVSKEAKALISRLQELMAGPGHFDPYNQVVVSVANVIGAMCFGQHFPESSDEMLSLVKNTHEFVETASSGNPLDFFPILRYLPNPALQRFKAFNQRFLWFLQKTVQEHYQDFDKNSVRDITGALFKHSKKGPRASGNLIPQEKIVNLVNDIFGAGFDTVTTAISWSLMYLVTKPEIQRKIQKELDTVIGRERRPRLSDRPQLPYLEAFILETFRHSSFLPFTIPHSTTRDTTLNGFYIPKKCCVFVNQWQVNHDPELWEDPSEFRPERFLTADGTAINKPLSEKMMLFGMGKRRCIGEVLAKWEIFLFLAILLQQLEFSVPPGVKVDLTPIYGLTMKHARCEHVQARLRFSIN
Description: Vivid CYP450 fluorescence assay, reversible inhibition.

Data set [5] addresses T4, CYP2B6 (Homo sapiens, UniProt P20813).
T4 sequence (P20813 1-491): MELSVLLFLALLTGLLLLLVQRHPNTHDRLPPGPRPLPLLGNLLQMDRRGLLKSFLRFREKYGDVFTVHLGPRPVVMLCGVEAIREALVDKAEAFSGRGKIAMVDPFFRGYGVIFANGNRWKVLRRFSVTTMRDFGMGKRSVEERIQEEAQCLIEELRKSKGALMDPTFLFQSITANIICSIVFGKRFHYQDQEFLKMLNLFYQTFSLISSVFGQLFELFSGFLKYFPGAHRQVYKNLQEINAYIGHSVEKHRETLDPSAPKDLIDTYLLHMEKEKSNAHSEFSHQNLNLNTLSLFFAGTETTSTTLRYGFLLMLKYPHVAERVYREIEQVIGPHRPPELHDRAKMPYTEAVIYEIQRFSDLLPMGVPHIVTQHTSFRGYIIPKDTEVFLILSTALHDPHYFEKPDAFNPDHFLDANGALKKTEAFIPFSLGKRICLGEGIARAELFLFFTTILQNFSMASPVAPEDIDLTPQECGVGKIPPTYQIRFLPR
The data set is described as above.

Data set [6] relates to T5, CYP2C8.
T5 construct: purchased Life Technologies
Description: Time-dependent inhibition (IC50 shift, NADPH pre-incubation). Format: biochemical, human. The conditions noted are these: CYP2C8 (stated for all 8 CYPs). On the procedure:
(§1) The procedure followed was similar to that used for screening of CYP reversible inhibition as mentioned above but with slight modifications. The master premix was added with NADP^+ to produce NADPH before the pre-incubation. The mixture was incubated for 30 min with shaking under similar range of concentrations of cathinone as mentioned above for IC50 determination. […] The IC50 shift was derived by calculating ratios of IC50 obtained from pre-incubation with and without NADPH. An IC50 shift ratio of more than 2 signifies irreversible time-dependent inhibition.

For data set [7] the following is noted: from 36.1 to 59.2 g of khat chewed, mean ± SD; cited from earlier work.
The next data set concerns CYP3A4. The conditions noted are these: human CYP3A4, in vitro; cited from earlier work.
The target in data set [8] is T6, CYP2E1 (Homo sapiens, UniProt P05181). Description: Vivid CYP450 fluorescence assay, reversible inhibition.
T6 sequence (P05181 whole entry): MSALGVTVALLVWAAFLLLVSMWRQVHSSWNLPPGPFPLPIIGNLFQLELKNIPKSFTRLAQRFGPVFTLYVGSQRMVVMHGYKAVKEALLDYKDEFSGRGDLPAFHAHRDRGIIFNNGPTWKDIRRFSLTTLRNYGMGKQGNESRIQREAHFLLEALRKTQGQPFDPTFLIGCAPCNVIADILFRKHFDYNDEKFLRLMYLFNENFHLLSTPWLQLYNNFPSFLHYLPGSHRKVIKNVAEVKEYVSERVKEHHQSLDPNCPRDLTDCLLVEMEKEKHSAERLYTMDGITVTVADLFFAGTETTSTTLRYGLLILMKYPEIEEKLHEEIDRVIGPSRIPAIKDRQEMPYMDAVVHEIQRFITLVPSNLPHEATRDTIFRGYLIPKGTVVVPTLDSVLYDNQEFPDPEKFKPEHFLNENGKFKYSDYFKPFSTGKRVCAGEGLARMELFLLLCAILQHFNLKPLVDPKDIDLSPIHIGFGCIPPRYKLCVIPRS
The conditions of data set [9]: cited from earlier work.
For data set [10] the following is noted: cited from earlier work. This is another data set of the same source.
Data set [11] has as its target T7, CYP3A5 (Homo sapiens, UniProt P20815). Description: Vivid CYP450 fluorescence assay, reversible inhibition.
Data set [12] has as its target T8, CYP2J2 (Homo sapiens, UniProt P51589).
T8 sequence (P51589 1-502): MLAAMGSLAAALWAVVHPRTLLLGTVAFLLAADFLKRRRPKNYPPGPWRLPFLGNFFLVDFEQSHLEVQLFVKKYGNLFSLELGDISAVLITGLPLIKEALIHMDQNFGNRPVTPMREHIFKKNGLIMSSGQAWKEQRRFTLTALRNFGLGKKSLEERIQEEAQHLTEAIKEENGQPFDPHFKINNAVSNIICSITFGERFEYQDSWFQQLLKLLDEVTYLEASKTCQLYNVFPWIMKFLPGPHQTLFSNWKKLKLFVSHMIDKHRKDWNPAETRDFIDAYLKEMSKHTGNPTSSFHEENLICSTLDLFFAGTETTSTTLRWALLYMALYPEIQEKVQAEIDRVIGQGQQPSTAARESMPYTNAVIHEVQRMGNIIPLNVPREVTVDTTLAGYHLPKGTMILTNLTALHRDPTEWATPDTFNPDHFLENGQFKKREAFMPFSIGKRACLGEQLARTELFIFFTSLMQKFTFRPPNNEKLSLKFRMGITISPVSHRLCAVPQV
Description: Time-dependent inhibition (IC50 shift, NADPH pre-incubation). It counts as biochemical. Further details: purchased Life Technologies. As to the method: as §1

Data set [13] has as its target T2, CYP2C19. The description is as above. It counts as biochemical. Further details: purchased Life Technologies. On the procedure:
as §1

Data set [14] deals with T3, CYP1A2. The description is as above. Further details: purchased Life Technologies. Format: biochemical. As to the method: as §1
Data set [15] addresses T6, CYP2E1. The data set is described as above. Format: biochemical. Further details: purchased Life Technologies. As to the method: as §1
In data set [16] the target is T7, CYP3A5. Described as above. Further details: purchased Life Technologies. Format: biochemical. On the procedure: as §1
The target in data set [17] is T1, CYP2A6. The description is as above. Format: biochemical. Further details: purchased Life Technologies. On the procedure: as §1
Data set [18] addresses T4, CYP2B6. The data set is described as above. Further details: purchased Life Technologies. Format: biochemical. On the procedure:
as §1

Data set [19] concerns the target T8, CYP2J2. Description: Vivid CYP450 fluorescence assay, reversible inhibition.

T7 sequence (P20815 whole entry): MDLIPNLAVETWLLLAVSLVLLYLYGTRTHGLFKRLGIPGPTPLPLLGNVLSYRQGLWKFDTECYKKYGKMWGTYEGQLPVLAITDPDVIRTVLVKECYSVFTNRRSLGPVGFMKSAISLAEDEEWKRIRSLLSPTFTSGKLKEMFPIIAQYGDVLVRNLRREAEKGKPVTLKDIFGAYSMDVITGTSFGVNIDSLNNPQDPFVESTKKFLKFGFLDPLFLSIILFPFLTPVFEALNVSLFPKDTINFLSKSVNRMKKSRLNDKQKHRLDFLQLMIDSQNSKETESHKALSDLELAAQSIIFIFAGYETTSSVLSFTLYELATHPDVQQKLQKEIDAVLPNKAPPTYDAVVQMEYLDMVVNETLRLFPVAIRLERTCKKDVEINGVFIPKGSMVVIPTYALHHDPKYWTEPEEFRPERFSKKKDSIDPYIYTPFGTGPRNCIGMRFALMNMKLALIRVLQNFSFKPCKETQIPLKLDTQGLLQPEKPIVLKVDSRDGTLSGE
T2 sequence (P33261 whole entry): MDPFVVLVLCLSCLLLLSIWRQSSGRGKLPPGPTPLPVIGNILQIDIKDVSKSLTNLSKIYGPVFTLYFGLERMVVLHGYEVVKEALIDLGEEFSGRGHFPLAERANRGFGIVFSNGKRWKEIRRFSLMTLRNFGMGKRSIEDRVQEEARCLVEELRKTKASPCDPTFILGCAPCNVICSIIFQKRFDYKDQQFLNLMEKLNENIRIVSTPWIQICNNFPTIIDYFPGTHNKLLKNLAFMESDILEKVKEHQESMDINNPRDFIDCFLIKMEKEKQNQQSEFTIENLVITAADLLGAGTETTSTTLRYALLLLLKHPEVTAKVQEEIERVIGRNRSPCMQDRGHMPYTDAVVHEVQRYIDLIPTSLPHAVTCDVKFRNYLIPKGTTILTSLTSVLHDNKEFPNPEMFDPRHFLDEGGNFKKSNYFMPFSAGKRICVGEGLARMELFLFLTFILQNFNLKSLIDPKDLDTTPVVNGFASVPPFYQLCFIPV

Consider `C[C@H](N)C(=O)c1ccccc1` [Cathinone, (S)− 2-Amino-1-phenyl-1-propanone.hydrochloride], for which the IC50 (usually the concentration needed to halve the response being measured) against CYP2A6 [1] was found to be 11.5 µM; on CYP2C19 [2], 118 µM; on CYP1A2 [4] it was 17 µM; against CYP2B6 [5], 165 µM; against CYP2E1 [8] it was 568 µM; against CYP3A5 [11], 19.9 µM. Moreover, the IC50 at CYP2J2 [12] came out at 194 µM; on CYP2C19 [13], 220 µM; on CYP1A2 [14], 75.4 µM; on CYP2E1 [15], 71.3 µM; on CYP3A5 [16] it was 11.1 µM; at CYP2A6 [17] it was 13.7 µM. The results for the IC50 at CYP2B6 [18] and at CYP2J2 [19] were 110 µM and 163 µM, respectively. The Ki – broadly, a dissociation constant, usually derived from enzyme kinetics or from competition with a known ligand – at CYP2A6 [1] came out at 13.8 µM; on CYP1A2 [4] it was 57.1 µM; on CYP3A5 [11], 23.6 µM. For the same compound, the mode of inhibition result at CYP2A6 [1] (CYP2A6) was “un-competitive”; on CYP1A2 [4] (CYP1A2), “competitive”; at CYP3A5 [11] (CYP3A5), “noncompetitive”. Also, the inhibitory effects entry with CYP2C9, with CYP2D6 and in the data set on CYP3A4 was “negligible inhibitory effects” throughout. The “inhibition of CYP2C8” value in the data set with CYP2C8 [3] was “no significant inhibition”. Further, the “time dependent inhibition (TDI) potency” value in the data set with CYP2C8 [6] is “no significant TDI potency”. In addition, the “Cmax (maximal plasma concentration)” value in data set [7] is 58.9 ± 18.8 ng/mL. In data set [7], the absorbed is given as 59 ± 21%. The “area under the plasma concentration – time curve (AUC) from 0 to 9 h” value in [9] is 415 ± 207 ng/ml per hour. The “time of maximal plasma concentration” value in data set [9] was 127 ± 30 min. Moreover, the maximal plasma concentration in data set [9] (khat leaves equivalent to 0.8 mg cathinone/kg body weight) is 127 ± 53 ng/mL. Moreover, the terminal elimination half-life in [9] (plasma) is 4.33 ± 1.7 h. Also, in data set [10] (at 0.5 and 7.5 h after the start of khat chewing), the plasma level entry was “approximately 20 ng/ml”. The “maximum plasma levels (mean)” value in data set [10] (khat chewing) is 83 ng/mL. Besides, the IC50 shift at 60 min at CYP2A6 [17] (human, pH 8, probe Vivid CC (3-cyanocoumarin), CYP2A6, shift > 2 = significant TDI) came out at 0.84.
As for `C[C@H](N)[C@@H](O)c1ccccc1` [cathine, S,S-(+)-norpseudoephedrine], in [7], the “Cmax (maximal plasma concentration)” value is 71.2 ± 13.9 ng/mL and the absorbed is reported as 84 ± 6%.
